Reference: patent publication US10844077B2, “Thiazolyl-containing compounds for treating proliferative diseases” (Dana-Farber Cancer Institute, Inc., priority 2014, dated 2020)
Values joined by “and” are separate entries in the source; they are usually repeats but may differ in a detail not shown here. Identical values can stand only once.

Assays:
Experiment in all cases: KINATIV assay
Type in all cases: cell-based
Details in all cases: 1 μM, 90 minutes, BCWM.1 cells
ACK = ACK (Homo sapiens (Human), UniProt Q07912)
In short: (§1)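 Kinase occupancy was profiled in native cell lysates, which were labeled with an ATP-biotin probe. Bound kinases were identified and quantitated using ACTIVX.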

AMPKa1 = AMPKa1 (Homo sapiens (Human), UniProt Q13131)
In short: as §1

AMPKa1, AMPKa2 = system: AMPKa1, AMPKa2
In short: as §1

ATR = ATR (Homo sapiens (Human), UniProt Q13535)
In short: as §1

CASK = CASK (Homo sapiens (Human), UniProt O14936)
In short: as §1

CaMK2d = CaMK2d (Homo sapiens (Human), UniProt Q13557)
In short: as §1

CaMK4 = CaMK4 (Homo sapiens (Human), UniProt Q16566)
In short: as §1

EphB1 = EphB1 (Homo sapiens (Human), UniProt P54762)
In short: as §1

Erk5 = Erk5 (Homo sapiens (Human), UniProt Q13164)
In short: as §1

FGR = FGR (Homo sapiens (Human), UniProt P09769)
In short: as §1

HPK1 = HPK1 (Homo sapiens (Human), UniProt Q92918)
In short: as §1

IKKa = IKKa (Homo sapiens (Human), UniProt O15111)
In short: as §1

ITPK1 = ITPK1 (Homo sapiens (Human), UniProt Q13572)
In short: as §1

LATS2 = LATS2 (Homo sapiens (Human), UniProt Q9NRM7)
In short: as §1

MAP3K2 = MAP3K2 (Homo sapiens (Human), UniProt Q9Y2U5)
In short: as §1

MAP3K2, MAP3K3 = system: MAP3K2, MAP3K3
In short: as §1

MAP3K4 = MAP3K4 (Homo sapiens (Human), UniProt Q9Y6R4)
In short: as §1

MAP3K6 = MAP3K6 (Homo sapiens (Human), UniProt O95382)
In short: as §1

MARK2 = MARK2 (Homo sapiens (Human), UniProt Q7KZI7)
In short: as §1

MARK3 = MARK3 (Homo sapiens (Human), UniProt P27448)
In short: as §1

MASTL = MASTL (Homo sapiens (Human), UniProt Q96GX5)
In short: as §1

MELK = MELK (Homo sapiens (Human), UniProt Q14680)
In short: as §1

MLK3 = MLK3 (Homo sapiens (Human), UniProt Q16584)
In short: as §1

NEK2 = NEK2 (Homo sapiens (Human), UniProt P51955)
In short: as §1

NEK4 = NEK4 (Homo sapiens (Human), UniProt P51957)
In short: as §1

NEK7 = NEK7 (Homo sapiens (Human), UniProt Q8TDX7)
In short: as §1

NEK9 = NEK9 (Homo sapiens (Human), UniProt Q8TD19)
In short: as §1

OSR1 = OSR1 (Homo sapiens (Human), UniProt O95747)
In short: as §1

PI4KA, PI4KAP2 = system: PI4KA, PI4KAP2
In short: as §1

PI4KB = PI4KB (Homo sapiens (Human), UniProt Q9UBF8)
In short: as §1

PIK3CD = PIK3CD (Homo sapiens (Human), UniProt O00329)
In short: as §1

PITSLRE = system: PITSLRE
In short: as §1

RSK1, RSK2, RSK3 domain1 = system: RSK1, RSK2, RSK3 domain1
In short: as §1

RSK3 domain1 = RSK3 domain1 (Homo sapiens (Human), UniProt Q15349)
In short: as §1

TBK1 = TBK1 (Homo sapiens (Human), UniProt Q9UHD2)
In short: as §1

TEC = TEC (Homo sapiens (Human), UniProt P42680)
In short: as §1

TLK1 = TLK1 (Homo sapiens (Human), UniProt Q9UKI8)
In short: as §1

TYK2 domain2 = TYK2 domain2 (Homo sapiens (Human), UniProt P29597)
In short: as §1

Wnk1, Wnk2, Wnk4 = system: Wnk1, Wnk2, Wnk4
In short: as §1

p38d, p38g = system: p38d, p38g
In short: as §1

p70S6Kb = p70S6Kb (Homo sapiens (Human), UniProt Q9UBS0)
In short: as §1

NEK9, sequence (Q8TD19 whole entry): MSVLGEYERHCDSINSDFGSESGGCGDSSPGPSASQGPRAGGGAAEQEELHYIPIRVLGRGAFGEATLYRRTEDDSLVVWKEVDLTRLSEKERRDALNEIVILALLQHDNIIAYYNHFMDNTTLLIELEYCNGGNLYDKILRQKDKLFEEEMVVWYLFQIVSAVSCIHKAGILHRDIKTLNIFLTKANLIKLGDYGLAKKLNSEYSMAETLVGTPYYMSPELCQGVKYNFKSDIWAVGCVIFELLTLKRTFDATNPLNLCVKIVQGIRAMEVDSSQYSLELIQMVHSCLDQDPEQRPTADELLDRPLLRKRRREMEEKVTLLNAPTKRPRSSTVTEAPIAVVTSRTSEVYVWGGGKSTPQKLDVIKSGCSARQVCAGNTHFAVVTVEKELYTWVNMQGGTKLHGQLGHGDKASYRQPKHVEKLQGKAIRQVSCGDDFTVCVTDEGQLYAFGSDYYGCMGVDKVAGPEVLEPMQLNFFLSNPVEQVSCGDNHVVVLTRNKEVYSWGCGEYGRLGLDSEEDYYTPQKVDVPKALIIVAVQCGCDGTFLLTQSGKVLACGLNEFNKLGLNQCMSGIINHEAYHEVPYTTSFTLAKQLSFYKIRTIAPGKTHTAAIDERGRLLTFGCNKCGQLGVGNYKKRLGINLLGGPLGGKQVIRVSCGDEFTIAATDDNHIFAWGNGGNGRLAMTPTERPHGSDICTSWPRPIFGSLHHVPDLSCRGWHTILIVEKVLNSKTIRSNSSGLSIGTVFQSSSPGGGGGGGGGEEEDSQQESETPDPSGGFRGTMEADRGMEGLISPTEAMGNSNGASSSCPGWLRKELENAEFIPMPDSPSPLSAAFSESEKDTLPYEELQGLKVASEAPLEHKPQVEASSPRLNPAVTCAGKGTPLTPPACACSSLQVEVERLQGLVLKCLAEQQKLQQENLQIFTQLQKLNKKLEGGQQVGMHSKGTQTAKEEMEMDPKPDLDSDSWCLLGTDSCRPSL
PI4KB, sequence (Q9UBF8 whole entry): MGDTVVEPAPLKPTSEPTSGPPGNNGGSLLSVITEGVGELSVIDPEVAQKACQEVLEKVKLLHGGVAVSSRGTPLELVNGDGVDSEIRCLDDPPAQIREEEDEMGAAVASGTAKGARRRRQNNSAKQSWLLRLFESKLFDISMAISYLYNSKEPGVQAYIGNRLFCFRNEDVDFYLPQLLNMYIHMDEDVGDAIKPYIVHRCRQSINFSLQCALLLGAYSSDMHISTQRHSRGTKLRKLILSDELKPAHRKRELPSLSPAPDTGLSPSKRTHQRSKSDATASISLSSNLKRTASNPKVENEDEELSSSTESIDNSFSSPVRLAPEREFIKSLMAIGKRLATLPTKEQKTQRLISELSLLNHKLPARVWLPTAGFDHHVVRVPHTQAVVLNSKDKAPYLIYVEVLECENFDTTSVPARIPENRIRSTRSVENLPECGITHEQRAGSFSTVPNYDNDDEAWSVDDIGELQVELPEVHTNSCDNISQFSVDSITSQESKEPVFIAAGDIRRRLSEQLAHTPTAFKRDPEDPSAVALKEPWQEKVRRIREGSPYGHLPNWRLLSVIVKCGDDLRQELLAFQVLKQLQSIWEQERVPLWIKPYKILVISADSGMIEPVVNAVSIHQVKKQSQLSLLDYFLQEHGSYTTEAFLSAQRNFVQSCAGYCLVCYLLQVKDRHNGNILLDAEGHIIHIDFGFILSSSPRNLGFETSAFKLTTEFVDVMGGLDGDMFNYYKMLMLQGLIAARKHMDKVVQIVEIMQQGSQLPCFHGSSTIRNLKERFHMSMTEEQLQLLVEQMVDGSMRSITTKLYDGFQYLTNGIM
HPK1, sequence (Q92918 whole entry): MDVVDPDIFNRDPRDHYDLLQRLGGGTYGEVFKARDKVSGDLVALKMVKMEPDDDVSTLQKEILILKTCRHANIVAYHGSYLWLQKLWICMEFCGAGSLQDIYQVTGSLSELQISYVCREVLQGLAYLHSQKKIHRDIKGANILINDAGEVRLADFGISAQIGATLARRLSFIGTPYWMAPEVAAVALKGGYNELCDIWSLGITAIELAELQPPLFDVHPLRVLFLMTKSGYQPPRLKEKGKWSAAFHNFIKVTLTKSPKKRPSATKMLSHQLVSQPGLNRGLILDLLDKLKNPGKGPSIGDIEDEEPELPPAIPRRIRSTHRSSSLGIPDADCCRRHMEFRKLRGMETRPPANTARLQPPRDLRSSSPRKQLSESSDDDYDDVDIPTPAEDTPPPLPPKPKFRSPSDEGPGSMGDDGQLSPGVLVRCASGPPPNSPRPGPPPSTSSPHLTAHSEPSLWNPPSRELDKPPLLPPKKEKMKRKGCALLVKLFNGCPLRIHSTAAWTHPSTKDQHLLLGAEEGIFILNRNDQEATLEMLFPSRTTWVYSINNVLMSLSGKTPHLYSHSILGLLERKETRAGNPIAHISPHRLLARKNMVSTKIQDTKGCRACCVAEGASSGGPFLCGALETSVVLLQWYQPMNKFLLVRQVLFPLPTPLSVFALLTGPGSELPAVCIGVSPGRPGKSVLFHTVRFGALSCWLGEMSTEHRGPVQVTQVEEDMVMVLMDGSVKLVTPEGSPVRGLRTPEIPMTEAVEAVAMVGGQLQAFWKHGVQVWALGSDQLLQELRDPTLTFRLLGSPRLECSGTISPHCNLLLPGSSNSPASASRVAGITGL
ACK, sequence (Q07912 whole entry): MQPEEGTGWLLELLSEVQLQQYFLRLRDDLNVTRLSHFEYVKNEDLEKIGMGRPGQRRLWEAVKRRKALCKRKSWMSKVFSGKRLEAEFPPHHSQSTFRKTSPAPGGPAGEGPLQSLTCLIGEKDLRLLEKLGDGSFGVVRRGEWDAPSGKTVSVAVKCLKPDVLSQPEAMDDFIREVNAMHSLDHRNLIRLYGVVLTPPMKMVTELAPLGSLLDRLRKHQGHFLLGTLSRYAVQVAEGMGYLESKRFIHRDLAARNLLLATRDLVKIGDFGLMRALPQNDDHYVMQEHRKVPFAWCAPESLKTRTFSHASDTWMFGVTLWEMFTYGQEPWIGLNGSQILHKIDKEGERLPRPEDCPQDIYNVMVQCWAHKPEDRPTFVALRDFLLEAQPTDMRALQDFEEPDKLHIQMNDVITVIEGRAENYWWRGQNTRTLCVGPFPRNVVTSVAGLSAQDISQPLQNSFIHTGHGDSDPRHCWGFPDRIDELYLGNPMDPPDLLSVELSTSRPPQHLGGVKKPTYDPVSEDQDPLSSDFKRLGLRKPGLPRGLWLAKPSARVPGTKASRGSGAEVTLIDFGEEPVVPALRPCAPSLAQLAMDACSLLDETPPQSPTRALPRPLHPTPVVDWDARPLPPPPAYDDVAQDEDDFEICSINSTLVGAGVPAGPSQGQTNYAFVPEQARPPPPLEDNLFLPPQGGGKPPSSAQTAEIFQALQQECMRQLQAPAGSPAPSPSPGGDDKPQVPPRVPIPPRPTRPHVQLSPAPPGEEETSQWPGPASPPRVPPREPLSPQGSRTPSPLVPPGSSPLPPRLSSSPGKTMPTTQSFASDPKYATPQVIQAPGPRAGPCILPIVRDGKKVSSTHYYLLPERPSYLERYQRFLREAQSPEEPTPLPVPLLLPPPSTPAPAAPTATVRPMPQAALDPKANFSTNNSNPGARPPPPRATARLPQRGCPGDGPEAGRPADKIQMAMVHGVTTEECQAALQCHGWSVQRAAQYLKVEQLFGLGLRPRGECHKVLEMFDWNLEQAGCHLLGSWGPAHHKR
MASTL, sequence (Q96GX5 whole entry): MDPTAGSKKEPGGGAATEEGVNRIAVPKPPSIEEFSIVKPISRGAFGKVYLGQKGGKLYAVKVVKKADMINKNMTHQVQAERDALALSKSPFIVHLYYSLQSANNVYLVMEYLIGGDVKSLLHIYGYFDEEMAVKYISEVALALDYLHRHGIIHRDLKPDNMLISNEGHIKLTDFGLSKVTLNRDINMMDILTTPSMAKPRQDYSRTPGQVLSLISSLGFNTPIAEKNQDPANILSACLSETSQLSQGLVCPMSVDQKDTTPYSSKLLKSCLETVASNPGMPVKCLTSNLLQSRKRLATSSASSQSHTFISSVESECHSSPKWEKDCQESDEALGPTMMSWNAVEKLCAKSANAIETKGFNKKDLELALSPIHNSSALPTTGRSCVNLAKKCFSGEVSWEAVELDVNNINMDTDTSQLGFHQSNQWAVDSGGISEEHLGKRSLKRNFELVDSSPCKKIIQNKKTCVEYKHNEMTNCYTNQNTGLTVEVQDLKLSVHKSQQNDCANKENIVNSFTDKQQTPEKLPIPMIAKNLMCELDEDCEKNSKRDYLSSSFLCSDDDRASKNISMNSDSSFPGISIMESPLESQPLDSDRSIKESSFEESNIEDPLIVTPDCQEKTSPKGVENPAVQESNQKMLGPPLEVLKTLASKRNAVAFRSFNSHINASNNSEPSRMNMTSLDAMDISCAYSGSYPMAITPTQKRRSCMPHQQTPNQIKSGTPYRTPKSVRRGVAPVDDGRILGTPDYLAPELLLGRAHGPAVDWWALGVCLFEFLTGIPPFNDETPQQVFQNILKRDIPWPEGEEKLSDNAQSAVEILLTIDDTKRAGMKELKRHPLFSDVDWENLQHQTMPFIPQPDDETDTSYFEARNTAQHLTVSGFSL
NEK7, sequence (Q8TDX7 whole entry): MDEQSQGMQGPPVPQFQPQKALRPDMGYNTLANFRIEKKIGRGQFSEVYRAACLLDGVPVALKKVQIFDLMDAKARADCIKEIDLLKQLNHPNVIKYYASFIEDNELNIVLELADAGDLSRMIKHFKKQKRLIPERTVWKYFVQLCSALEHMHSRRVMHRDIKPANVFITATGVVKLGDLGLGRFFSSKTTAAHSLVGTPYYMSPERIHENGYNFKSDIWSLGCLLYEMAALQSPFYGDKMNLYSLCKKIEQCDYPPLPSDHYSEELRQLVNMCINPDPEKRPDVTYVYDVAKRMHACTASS

## C=CC(=O)N1CCCCC(Nc2nccc(Nc3ncc(C(=O)Nc4c(C)cccc4C)s3)n2)C1 (centres unmarked) [Example I-7]
ACK
  % change of MS signal compared to control sample: 80.7% and 88.5%
AMPKa1
  % change of MS signal compared to control sample: 2.7%
AMPKa1, AMPKa2
  % change of MS signal compared to control sample: −20.7% and −22.3%
ATR
  % change of MS signal compared to control sample: −48.0%
CASK
  % change of MS signal compared to control sample: 37.7%
CaMK2d
  % change of MS signal compared to control sample: −22.5%
CaMK4
  % change of MS signal compared to control sample: −24.9%
EphB1
  % change of MS signal compared to control sample: >97%
Erk5
  % change of MS signal compared to control sample: −13.8%
FGR
  % change of MS signal compared to control sample: 94.7%
HPK1
  % change of MS signal compared to control sample: 23.4% and 19.8%
IKKa
  % change of MS signal compared to control sample: −3.5%
ITPK1
  % change of MS signal compared to control sample: −17.5%
LATS2
  % change of MS signal compared to control sample: −6.6%
MAP3K2
  % change of MS signal compared to control sample: 4.9%
MAP3K2, MAP3K3
  % change of MS signal compared to control sample: 15.6%
MAP3K4
  % change of MS signal compared to control sample: −24.2%
MAP3K6
  % change of MS signal compared to control sample: −21.3%
MARK2
  % change of MS signal compared to control sample: 7.7%
MARK3
  % change of MS signal compared to control sample: 12.7%
MASTL
  % change of MS signal compared to control sample: −10.9% and −13.8%
MELK
  % change of MS signal compared to control sample: −11.0%
MLK3
  % change of MS signal compared to control sample: −4.6%
NEK2
  % change of MS signal compared to control sample: 8.5%
NEK4
  % change of MS signal compared to control sample: 7.9%
NEK7
  % change of MS signal compared to control sample: 10.0%
NEK9
  % change of MS signal compared to control sample: 2.5% and 1.1%
OSR1
  % change of MS signal compared to control sample: 22.0%
PI4KA, PI4KAP2
  % change of MS signal compared to control sample: −17.4%
PI4KB
  % change of MS signal compared to control sample: 36.0% and 35.3%
PIK3CD
  % change of MS signal compared to control sample: −19.1%
PITSLRE
  % change of MS signal compared to control sample: −9.3%
RSK1, RSK2, RSK3 domain1
  % change of MS signal compared to control sample: −58.3%
RSK3 domain1
  % change of MS signal compared to control sample: −48.6%
TBK1
  % change of MS signal compared to control sample: −39.7%
TEC
  % change of MS signal compared to control sample: 85.1% and 58.6%
TLK1
  % change of MS signal compared to control sample: 1.8% and 5.5%
TYK2 domain2
  % change of MS signal compared to control sample: −46.4%
Wnk1, Wnk2, Wnk4
  % change of MS signal compared to control sample: −6.6%
p38d, p38g
  % change of MS signal compared to control sample: 1.7%
p70S6Kb
  % change of MS signal compared to control sample: −42.7%
